This is an account of results in ChEMBL document CHEMBL1156829 (Proc Natl Acad Sci U S A, 2008).

The subject of data set [1] is Plasmodium falciparum. Nature of the data set: NOVARTIS: Inhibition of Plasmodium falciparum W2 (drug-resistant) proliferation in erythrocyte-based infection assay. Type of data set: functional, organism-based. The note with it: Plasmodium falciparum, W2; read-out: EC50.
A short description of data set [2]: NOVARTIS: Cytotoxicity against human hepatocellular carcinoma cell line (Huh7). Type of data set: toxicity, cell-based, Huh-7. To be noted: Huh7 cells (hepatocellular carcinoma cell line).
Data set [3] deals with Plasmodium falciparum. Kind of data set: NOVARTIS: Inhibition of Plasmodium falciparum 3D7 (drug-susceptible) proliferation in erythrocyte-based infection assay. Type of data set: functional, organism-based. To be noted: Plasmodium falciparum, 3D7.

Bounds are passed on as bounds.

For `Brc1ccc2c(c1)c1ccccc1n2CC1CO1` (centres undefined), the EC50 in data set [1] turned out to be 2250 nM; in data set [3], 4730 nM. Half-maximal cytotoxicity in data set [2] (CC50) was put at 29400 nM.

Take `CCCCc1ccc(C(=O)N(CCC(=O)Nc2nnc(-c3ccc(OC)cc3)s2)CCc2ccc(OC)c(OC)c2)cc1`: the figures for the EC50 in data set [1] and in data set [3] were over 757 nM and 1240 nM, respectively. This compound also had a CC50 in data set [2] of over 10000 nM.

Regarding `CC(C)(C)OC(=O)NCC(=O)Oc1cc2oc(=O)cc(-c3ccccc3)c2cc1Cl`, the EC50 in data set [1] was over 755 nM; in data set [3], over 1250 nM. This compound registered a CC50 in data set [2] of over 10000 nM.

On to `CCOC(=O)N1CCN(C(=O)C(=O)NNC(=O)COc2ccc(Cl)cc2Br)CC1`, for which the results for the EC50 in data set [1] and in data set [3] were 769 nM and over 1250 nM, respectively. For the same compound, in data set [2], the CC50 is over 10000 nM.

For the compound `Cc1ccc(C(C(=O)NCc2ccccc2)N(C(=O)c2snc(C(N)=O)c2N)c2ccccc2)o1` (centres undefined), the EC50 is over 755 nM in data set [1] and 1230 nM in data set [3]. In addition, in data set [2], the CC50 is over 10000 nM.

As to `O=C(NCCCCNc1ccnc2cc(Cl)ccc12)c1cc(C(F)(F)F)cc(C(F)(F)F)c1`, the EC50 in data set [1] amounted to 766 nM; in data set [3], 642 nM. The compound also had a CC50 in data set [2] of over 10000 nM.

Turning to `O=C(NC(=S)Nc1ccc([N+](=O)[O-])cc1Cl)c1ccco1`, the EC50 in data set [1] is over 769 nM; in data set [3] it was over 1530 nM. In data set [2], the CC50 was over 10000 nM.

Regarding `CC1CCCCN1CCCNc1ncc(C(=O)NCc2ccccc2)c(NCC2CCCCC2)n1` (centres undefined), the EC50 in data set [1] was over 759 nM; in data set [3], 582 nM. This compound also returned a half-maximal cytotoxic concentration (CC50) in data set [2] of over 10000 nM.

For the compound `COc1ccc(-c2csc3nc(COc4cccc(C)c4)nn23)c(O)c1`, the EC50 in data set [1] is 7590 nM; in data set [3], over 4620 nM. In addition, in data set [2], the half-maximal cytotoxic concentration (CC50) was over 100000 nM.

On to `CCOC(=O)N1CCN(C(=O)C(NC(=O)C2CCC(C)CC2)C(C)C)CC1` (centres undefined), for which the EC50 was over 755 nM in data set [1] and over 1670 nM in data set [3]. Besides, in data set [2], the CC50 was over 10000 nM.

With `CCCC(=O)O[C@]1(C(=O)CCl)[C@@H](C)C[C@H]2[C@@H]3CCC4=CC(=O)C=C[C@]4(C)[C@@]3(F)C(=O)C[C@@]21C`, the EC50 in data set [1] was 6080 nM; in data set [3] it was over 12500 nM. The compound also displayed a CC50 in data set [2] of 80000 nM.

As to `CCn1c2ccccc2c2cc(C=NNC(=O)c3nnn(-c4nonc4N)c3-c3ccccc3)ccc21`, the results for the EC50 in data set [1] and in data set [3] were over 760 nM and over 1250 nM, respectively. The compound further returned a CC50 in data set [2] of over 10000 nM.

In the case of `COc1ccc(OC)c(-c2ccc(O)c(CNCC3(O)CCCCC3)c2)c1`, the EC50 in data set [1] amounted to 762 nM; in data set [3], 818 nM. The compound further had a CC50 in data set [2] of over 10000 nM.

As to `CCc1ccccc1N1C(=O)CN(Cc2ccccc2)C1=S`, the EC50 in data set [1] is 6000 nM; in data set [3], over 12500 nM. The same compound had a CC50 in data set [2] of 78800 nM.

As to `CC(C)(C)c1cc(Br)cc(C=NNc2ccc([N+](=O)[O-])cc2)c1O`, the EC50 in data set [1] is 761 nM; in data set [3] it was over 1210 nM. Also, the CC50 in data set [2] is over 10000 nM.

`Cc1ccc(-n2c(C(C)N(CCc3ccccc3)C(=O)c3cccc(F)c3)nc3ccccc3c2=O)c(C)c1` (centres undefined): the EC50 in data set [1] was 764 nM; in data set [3], over 1250 nM. In data set [2], this compound came in with a CC50 of over 10000 nM.

As to `CCN1C(=Cc2ccc3c4ccoc4ccc3[n+]2CC)C=Cc2c1ccc1occc21`, the EC50 was determined as 764 nM in data set [1] and 534 nM in data set [3]. The CC50 in data set [2] is over 10000 nM.

Consider `CCCCCCN(C(=O)Nc1ccccc1OC)C(C)c1nc2ccccc2c(=O)n1-c1ccccc1OCC` (centres undefined), for which the EC50 in data set [1] came to 753 nM; in data set [3], 852 nM. Also, in data set [2], the cytotoxic concentration (CC50) was over 10000 nM.

As to `COc1ccc(OC)c(-c2ccc(O)c(CNCCc3ccc(Cl)cc3)c2)c1`, the EC50 in data set [1] worked out at 749 nM; in data set [3], 987 nM. Further, the CC50 in data set [2] is over 10000 nM.

For the compound `O=C(CCN1C(=O)C2CCCCC2C1=O)N1CCc2ccccc2C1` (centres undefined), the EC50 is 7490 nM in data set [1] and over 4850 nM in data set [3]. Also, in data set [2], the CC50 is over 100000 nM.

Consider `COc1cc2nc(CN(C)C(C)c3cccs3)nc(N3CCCC3)c2cc1OC` (centres undefined), for which the EC50 in data set [1] is 1990 nM; in data set [3], over 12500 nM. In addition, the CC50 in data set [2] was determined as 26400 nM.

Take `N#Cc1cccc(/C=C/C(=O)O)c1`: the values for the EC50 in data set [1] and in data set [3] were 752 nM and 1650 nM, respectively. This compound also showed a CC50 in data set [2] of over 10000 nM.

On to `COc1cc(NC(C)CCCN(Cc2ccc(Cl)cc2)C(=O)Nc2cccc(C(F)(F)F)c2)c2ncccc2c1` (centres undefined), for which the values for the EC50 in data set [1] and in data set [3] were 332 nM and 798 nM, respectively. Moreover, the CC50 in data set [2] is over 4440 nM.

Take `CCCCCCc1ccc(C(=O)N(CC(=O)Nc2cc(C(C)(C)C)nn2-c2ccc(Cl)c(Cl)c2)C(C)C)cc1`: the EC50 in data set [1] is over 752 nM; in data set [3], 1390 nM. The CC50 in data set [2] was over 10000 nM.

Consider `COc1ccc(C2=C/C(=C/c3cccc(OC)c3OC)C(=O)O2)cc1OC`, for which the EC50 in data set [1] was over 751 nM; in data set [3], 1140 nM. The compound also gave a CC50 in data set [2] of over 10000 nM.

Consider `CCOc1ccc(OCc2nnc(S)n2N)cc1`, for which the EC50 in data set [1] is over 752 nM; in data set [3], over 1250 nM. This compound also had a CC50 in data set [2] of over 10000 nM.

Turning to `O=C1c2ccccc2-c2nc3c(Cl)cc(C(F)(F)F)cc3nc21`, the EC50 came to 747 nM in data set [1] and 1040 nM in data set [3]. The compound further had a CC50 in data set [2] of over 10000 nM.

As for `CCCN(CC(=O)Nc1cc(C(C)(C)C)nn1-c1cccc(C)c1C)C(=O)C(C)(C)C`, the EC50 in data set [1] was over 763 nM; in data set [3] it was over 1250 nM. The CC50 in data set [2] is over 10000 nM.

As for `C1CCC(NP2(NC3CCCCC3)=NP(NC3CCCCC3)(NC3CCCCC3)=NP(NC3CCCCC3)(NC3CCCCC3)=N2)CC1`, the EC50 in data set [1] came out at 3150 nM; in data set [3], 6610 nM. This compound also came in with a CC50 in data set [2] of 41400 nM.

Turning to `Nc1ccc(-c2nc(-c3ccc(N)cc3)c3ccccc3n2)cc1`, the 50% effective concentration (EC50) was 759 nM in data set [1] and over 1250 nM in data set [3]. The CC50 in data set [2] was over 10000 nM.

Consider `CCOc1ccc(NC(=O)C(C)Sc2nc3ccccc3[nH]2)cc1` (centres undefined), for which the EC50 in data set [1] is over 7600 nM; in data set [3], over 12500 nM. In data set [2], this compound displayed a CC50 of over 100000 nM.

Consider `COc1ccc(CC(=O)NCCCCNc2ccnc3cc(Cl)ccc23)cc1`, for which the EC50 was 345 nM in data set [1] and 550 nM in data set [3]. In addition, the CC50 in data set [2] worked out at 4500 nM.

Consider `N#Cc1cc2nc3c(nc2cc1C#N)-c1ccccc1C3=O`, for which the EC50 was determined as 2560 nM in data set [1] and 6970 nM in data set [3]. This compound also had a CC50 in data set [2] of 33200 nM.

Regarding `Cc1cccc(-c2cc3nc(C)c(C)c(O)n3n2)c1`, the EC50 in data set [1] was 7540 nM; in data set [3] it was over 9720 nM. The compound further came in with a CC50 in data set [2] of over 100000 nM.

As for `Cc1sc2ncn(CC(=O)N(C)Cc3ccccc3)c(=O)c2c1S(=O)(=O)N1CCOCC1`, the EC50 in data set [1] is over 770 nM; in data set [3], over 1250 nM. Also, the CC50 in data set [2] is over 10000 nM.

As to `Cc1ccc(C(C(=O)NC(C)(C)C)N(C(=O)c2ccc(-c3ccccc3)[nH]2)c2ccc(C3CCCCC3)cc2)o1` (centres undefined), the values for the EC50 in data set [1] and in data set [3] were 765 nM and 337 nM, respectively. This compound also yielded a cytotoxic concentration (CC50) in data set [2] of over 10000 nM.

Take `O=C(NNc1c2ccccc2nc2ccccc12)Nc1ccccc1`: the EC50 was found to be 756 nM in data set [1] and 873 nM in data set [3]. Moreover, in data set [2], the CC50 is over 10000 nM.

With `Cc1ccc(-n2c(C(C)N(Cc3ccco3)C(=O)C3CCC3)nc3cc(Cl)ccc3c2=O)cc1` (centres undefined), the EC50 was 208 nM in data set [1] and over 1680 nM in data set [3]. Further, in data set [2], the CC50 was over 2760 nM.

Broadly, the EC50 is the concentration needed to bring the measured effect to its halfway point. The term CC50 denotes the concentration that lowers cell viability or growth by half. Read a high CC50 as lower toxicity to the cells.
